Drawing on US7364900B2, “Multi-lineage directed induction of bone marrow stromal cell differentiation” (University of Medicine and Dentistry of New Jersey, priority 2001, dated 2008), this text covers changes in morphology for one molecule.

This assay has as its system rMSCs. Description: Induction of nestin-positive endodermal/neuronal precursor cells from marrow stromal cells. Format: cell-based, rat. Conditions: sub-confluent rMSCs, pre-induction media supplemented with 1 mM BME, 24 hours. On the procedure: Rat MSCs are originally cultured in alpha-Modified Eagle's Medium (alpha-MEM) supplemented with 20% FBS, 2 mM L-glutamine, 100 units per milliliter penicillin, 100 […] streptomycin and 25 nanograms per milliliter amphotericin B. For each passage the cells are plated at about 8,000 cells per square centimeter and grown to confluency. At passage 6 the cells are transferred to DMEM (pH 8.0)/20% FBS without additional supplementation, and maintained beyond passage 14. Subconfluent cultures of rat and human MSCs are maintained in DMEM/20% FBS.
Twenty-four hours before induction of partial differentiation to nestin-positive precursor cells, medium is replaced with a pre-induction medium consisting of DMEM, 20% FBS and 1 millimolar β-mercaptoethanol. The cells are then transferred to a serum free endodermal/neuronal precursor induction medium composed of DMEM and 1-10 millimolar β-mercaptoethanol. […] To effect further differentiation to pancreatic islet cell phenotype, the partially differentiated nestin-positive endodermal/neuronal precursor cells are transferred to serum-free DMEM containing 1-10 mM β-mercaptoethanol with and without 10 nanograms/ml basic fibroblast growth factor (bFGF).
rMSCs are initially maintained in sub-confluent cultures in pre-induction media supplemented with 1 mM beta-mercaptoethanol (BME) for 24 hours. […]

With `OCCS` [BME, beta-mercaptoethanol], the changes in morphology entry is “no changes in morphology are evident”.
